This test concerns lymphocytic leukemia P388. Nature of the test: Lymphocytic Leukemia P388 Test. The format is in vivo, BDF1 mice. The conditions noted are these: for Median Survival: BDF1 mice; for T/C × 100 (%): ratio of survival time treated/control. Summed up: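 BDF1 mice (5–6 per group) were inoculated i.p. with 10^6 P388 cells, then dosed i.p. on days 1, 5 and 9 at various doses. Survival was followed for 60 days, and median survival time and the treated/control (T/C) survival ratio were calculated.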

The mark [1] stands for this setting: dose 0.75 mg/kg intraperitoneally on days 1, 5 and 9.
The mark [2] stands for this setting: dose 1.5 mg/kg intraperitoneally on days 1, 5 and 9.
The mark [3] stands for this setting: dose 3 mg/kg intraperitoneally on days 1, 5 and 9.

These results are taken from US4732970A, “Antitumor amino acid and peptide derivatives of 1,4-bis(aminoalkyl and hydroxy-aminoalkyl)amino)-5,8-dihydroxyanthraquinones” (priority 1986, dated 1988).

With `CC(C)[C@H](N)C(=O)NCCNc1ccc(NCCNC(=O)[C@@H](N)C(C)C)c2c1C(=O)c1c(O)ccc(O)c1C2=O.Cl.Cl` (relative stereo) [Example 24, [S-(R*,R*)]-N,N'-[(9,10-Dihydro-5,8-dihydroxy-9,10-dioxo-1,4-anthracenediyl)bis(imino-2,1-ethanediyl)]bis-[2-Amino-3-methylbutanamide], dihydrochloride], the “Median Survival” value was determined as 18.5 days under setting [1], 20.0 days under setting [2] and 20.0 days under setting [3]. The “T/C × 100 (%)” value by setting is: under setting [1], 185%; under setting [2], 200%; under setting [3], 200%.

`N[C@@H](COCc1ccccc1)C(=O)NCCNc1ccc(NCCNC(=O)[C@@H](N)COCc2ccccc2)c2c1C(=O)c1c(O)ccc(O)c1C2=O.O=C(O)C(F)(F)F.O=C(O)C(F)(F)F` (relative stereo) [Example 42, [S-(R*,R*)]-N,N'-[(9,10-Dihydro-5,8-dihydroxy-9,10-dioxo-1,4-anthracenediyl)bis[imino-2,1-ethanediyl)]bis[2-amino-3-(phenylmethoxy)-propanamide]bis(trifluoroacetate)]: the “Median Survival” value under setting [1] was 19.5 days, the “Median Survival” value under setting [2] stood at 21.5 days and the “Median Survival” value under setting [3] worked out at 19.5 days. Also, the “T/C × 100 (%)” value reads like this: under setting [1], 195%; under setting [2], 215%; under setting [3], 195%.

On to `C[C@@H](N)C(=O)NCCNc1ccc(NCCNC(=O)[C@@H](C)N)c2c1C(=O)c1c(O)ccc(O)c1C2=O.Cl.Cl` (stereo in doubt) [Example 25, [R-(R*,R*)]-N,N'-[(9,10-Dihydro-5,8-dihydroxy-9,10-dioxo-1,4-anthracenediyl)bis(imino-2,1-ethanediyl)]bis-[2-aminopropanamide], dihydrochloride], for which the “Median Survival” value is, setting by setting: under setting [1], 19.0 days; under setting [2], 20.0 days; under setting [3], 24.0 days. Further, the “T/C × 100 (%)” value is, setting by setting: under setting [1], 173%; under setting [2], 182%; under setting [3], 218%.

As to `CC(C)C[C@H](NC(=O)[C@H](C)N)C(=O)NCCNc1ccc(NCCNC(=O)[C@H](CC(C)C)NC(=O)[C@H](C)N)c2c1C(=O)c1c(O)ccc(O)c1C2=O.O=C(O)C(F)(F)F.O=C(O)C(F)(F)F` [Example 66, N,N'-[(9,10-Dihydro-5,8-dihydroxy-9,10-dioxo-1,4-anthracenediyl)bis(imino-2,1-ethanediyl)]bis[L-alanyl-L-leucinamide]bis(trifluoroacetate)], the “Median Survival” value under setting [1] stood at 19.0 days, the “Median Survival” value under setting [2] stood at 20.0 days and the “Median Survival” value under setting [3] amounted to 28.0 days. Moreover, the “T/C × 100 (%)” value came out at 173% under setting [1], 182% under setting [2] and 255% under setting [3].

For the compound `C[C@H](NC(=O)[C@H](C)NC(=O)[C@H](CC(=O)OC(C)(C)C)NC(=O)OCC1c2ccccc2-c2ccccc21)C(=O)NCCNc1ccc(NCCNC(=O)[C@H](C)NC(=O)[C@H](C)NC(=O)[C@H](CC(=O)OC(C)(C)C)NC(=O)OCC2c3ccccc3-c3ccccc32)c2c1C(=O)c1c(O)ccc(O)c1C2=O` [Example 79, N,N'-[(9,10-Dihydro-5,8-dihydroxy-9,10-dioxo-1,4-anthracenediyl)bis(imino-2,1-ethanediyl)]bis[N-[(9H-fluoren-9-ylmethoxy)carbonyl]-L-α-aspartyl-L-alanyl-L-alaninamide]bis(1,1-dimethylethyl)ester], the “Median Survival” value turned out to be 18.5 days under setting [1], 18.0 days under setting [2] and 19.0 days under setting [3]. The “T/C × 100 (%)” value is on record as 168% under setting [1], 164% under setting [2] and 173% under setting [3].

`Br.Br.CC(C)C[C@H](N)C(=O)NCCNc1ccc(NCCNC(=O)[C@@H](N)CC(C)C)c2c1C(=O)c1c(O)ccc(O)c1C2=O` (stereo in doubt) [Example 31, [S-(R*,R*)]-N,N'-[(9,10-Dihydro-5,8-dihydroxy-9,10-dioxo-1,4-anthracenediyl)bis(imino-2,1-ethanediyl)]bis[2-amino-4-methylpentanamide], dihydrobromide]: the “Median Survival” value turned out to be 17.5 days under setting [1], 18.0 days under setting [2] and 21.0 days under setting [3]. The “T/C × 100 (%)” value is, setting by setting: under setting [1], 175%; under setting [2], 180%; under setting [3], 210%.

For the compound `CC(C)(C)OC(=O)C[C@H](NC(=O)OCC1c2ccccc2-c2ccccc21)C(=O)NCCNc1ccc(NCCNC(=O)[C@H](CC(=O)OC(C)(C)C)NC(=O)OCC2c3ccccc3-c3ccccc32)c2c1C(=O)c1c(O)ccc(O)c1C2=O` (relative stereo) [Example 38, [S-R*,R*)]-4,4'-[(9,10-Dihydro-5,8-dihydroxy-D9,10-dioxo-1,4-anthracenediyl)bis(imino-2,1-ethanediylimino)]bis[3-[[9H-fluoren-9-ylmethoxycarbonyl]amino]-4-oxobut anoic acid],bis(1,1-dimethyl)ester], the “Median Survival” value runs as follows: under setting [1], 13.0 days; under setting [2], 15.0 days; under setting [3], 16.0 days. The “T/C × 100 (%)” value reads like this: under setting [1], 108%; under setting [2], 125%; under setting [3], 133%.

Take `Cl.Cl.N[C@@H](Cc1ccc(O)cc1)C(=O)NCCNc1ccc(NCCNC(=O)[C@@H](N)Cc2ccc(O)cc2)c2c1C(=O)c1c(O)ccc(O)c1C2=O` (relative stereo) [Example 37, [S-(R*,R*)]-N,N'-[(9,10-Dihydro-5,8-dihydroxy-9,10-dioxo-1,4anthracenediyl)bis(imino-2,1-ethanediyl)]bis-[2,-amino-3-(4-hydroxyphenyl)-propanamide, dihydrochloride]: the “Median Survival” value was 25.0 days under setting [1], 23.5 days under setting [2] and 23.5 days under setting [3]. In addition, the “T/C × 100 (%)” value by setting is: under setting [1], 227%; under setting [2], 214%; under setting [3], 214%.

With “[S-(R*,R*)][(9,10-Dihydro-5,8-dihydroxy-9,10-dioxo-1,4-anthracenediyl)bis[1-[3-[[imino(nitroamino)methyl]amino]propyl]-2-oxo-2,1-ethanediyl]]bis-carbamic acid, bis(phenylmethyl)ester [Example 91]”, the “Median Survival” value stood at 15.5 days under setting [1], 16.5 days under setting [2] and 18.0 days under setting [3]. Also, the “T/C × 100 (%)” value is, setting by setting: under setting [1], 141%; under setting [2], 150%; under setting [3], 164%.

Consider `Br.Br.N[C@@H](CS)C(=O)NCCNc1ccc(NCCNC(=O)[C@@H](N)CS)c2c1C(=O)c1c(O)ccc(O)c1C2=O` (relative stereo) [Example 35, R-(R*,R*)]-N,N'-[(9,10-Dihydro-5,8-dihydroxy-9,10-dioxo-1,4-anthracenediyl)bis(imino-2,1-ethanediyl)]bis[2-amino-3-mercaptopropanamide], dihydrobromide], for which the “Median Survival” value came out at 21.0 days under setting [1], 23.0 days under setting [2] and 24.5 days under setting [3]. The “T/C × 100 (%)” value by setting is: under setting [1], 210%; under setting [2], 230%; under setting [3], 245%.

For the compound `Br.Br.C[C@H](N)C(=O)NCC(=O)NCCNc1ccc(NCCNC(=O)CNC(=O)[C@H](C)N)c2c1C(=O)c1c(O)ccc(O)c1C2=O` [Example 56, N,N'-[(9,10-Dihydro-5,8-dihydroxy-9,10-dioxo-1,4-anthracenediyl)bis(imino-2,1-ethanediyl)]bis[L-alanyl-glycinamine]dihydrobromide], the “Median Survival” value amounted to 21.0 days under setting [1], 28.0 days under setting [2] and 32.5 days under setting [3]. Besides, the “T/C × 100 (%)” value worked out at 191% under setting [1], 255% under setting [2] and 295% under setting [3].

Turning to `Cl.Cl.N[C@@H](Cc1ccccc1)C(=O)NCCNc1ccc(NCCNC(=O)[C@@H](N)Cc2ccccc2)c2c1C(=O)c1c(O)ccc(O)c1C2=O` (relative stereo) [Example 17, [S-(R*,R*)]-N,N'-[(9,10-Dihydro-5,8-dihydroxy-9,10-dioxo-1,4-anthracenediyl)bis(imino-2,1-ethanediyl)]bis[2-aminobenzenepropanamide], dihydrochloride], the “Median Survival” value reads like this: under setting [1], 22.5 days; under setting [2], 23.0 days; under setting [3], 19.5 days. Moreover, the “T/C × 100 (%)” value reads like this: under setting [1], 188%; under setting [2], 192%; under setting [3], 163%.

As to `Br.Br.CC(C)C[C@H](NC(=O)[C@H](C)NC(=O)[C@@H](N)CC(C)C)C(=O)NCCNc1ccc(NCCNC(=O)[C@H](CC(C)C)NC(=O)[C@H](C)NC(=O)[C@@H](N)CC(C)C)c2c1C(=O)c1c(O)ccc(O)c1C2=O` [Example 52, N,N'-[(9,10-Dihydro-5,8-dihydroxy-9,10-dioxo-1,4-anthracenediyl)bis(imino-2,1-ethanediyl)]bis[L-leucyl-L-Alanyl-L-leucinamide]dihydrobromide], the “Median Survival” value under setting [1] is 20.5 days, the “Median Survival” value under setting [2] came out at 25.5 days and the “Median Survival” value under setting [3] came to 25.0 days. For the same compound, the “T/C × 100 (%)” value under setting [1] turned out to be 205%, the “T/C × 100 (%)” value under setting [2] worked out at 255% and the “T/C × 100 (%)” value under setting [3] is given as 250%.
